Legend:
[1] = test system: ABUTH; assay: Herbicidal pre-emergence action (Table A1); assay type: in vivo, Abutilon theophrasti; settings: application rate 1280 g/ha; visual grading after ca. 3 weeks vs untreated controls (100% = plants have died off, 0% = as control plants)
Procedure, shortened: (§1)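 Paired sowings (monocot weed with dicot weed) in potted sandy loam, seeds soil-covered.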

[2] = test system: ECHCG; assay: Herbicidal pre-emergence action (Table A2); assay type: in vivo, Echinochloa crus-galli; settings: application rate 320 g/ha; visual grading after ca. 3 weeks
Procedure, shortened: as §1

[3] = test system: LOLRI; assay: Herbicidal pre-emergence action (Table A3); assay type: in vivo, Lolium rigidum; settings: Lolium rigidum, pre-emergence, 504 h, application rate 320 g/ha; visual grading after ca. 3 weeks; read-out: pre-emergence activity against LOLRI
Procedure, shortened: as §1

[4] = test system: MATIN; assay: Herbicidal pre-emergence action (Table A4); assay type: in vivo, Matricaria inodora; settings: application rate 320 g/ha; visual grading after ca. 3 weeks
Procedure, shortened: as §1

[5] = test system: SETVI; assay: Herbicidal pre-emergence action (Table A5); assay type: in vivo, Setaria viridis; settings: application rate 320 g/ha; visual grading after ca. 3 weeks
Procedure, shortened: as §1

[6] = test system: STEME; assay: Herbicidal pre-emergence action (Table A6); assay type: in vivo, Stellaria media; settings: application rate 320 g/ha; visual grading after ca. 3 weeks
Procedure, shortened: as §1

[7] = test system: POAAN; assay: Herbicidal pre-emergence action (Table A7); assay type: in vivo, Poa annua; settings: Poa annua, pre-emergence, 504 h; application rate 320 g/ha; visual grading after ca. 3 weeks; read-out: pre-emergence activity against POAAN
Procedure, shortened: as §1

[8] = test system: ALOMY; assay: Herbicidal pre-emergence action (Table A9); assay type: in vivo, Alopecurus myosuroides; settings: application rate 1280 g/ha; visual grading after ca. 3 weeks
Procedure, shortened: as §1

[9] = test system: KCHSC; assay: Herbicidal pre-emergence action (Table A10); assay type: in vivo, Kochia scoparia; settings: application rate 320 g/ha; visual grading after ca. 3 weeks
Procedure, shortened: as §1

[10] = test system: VERPE; assay: Herbicidal pre-emergence action (Table A11); assay type: in vivo, Veronica persica; settings: application rate 320 g/ha; visual grading after ca. 3 weeks
Procedure, shortened: as §1

[11] = test system: DIGSA; assay: Herbicidal pre-emergence action (Table A12); assay type: in vivo, Digitaria sanguinalis; settings: application rate 320 g/ha; visual grading after ca. 3 weeks
Procedure, shortened: as §1

[12] = test system: ABUTH; assay: Herbicidal post-emergence action (Table B1); assay type: in vivo, Abutilon theophrasti; settings: application rate 320 g/ha; treated at one-leaf stage; rated visually after about 3 weeks vs untreated controls (100% = plants have died, 0% = like control plants)
Procedure, shortened: (§2)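 Weed seeds sown in sandy loam in pots (one mono- or dicot species per pot), grown in greenhouse; plants treated post-emergence at one-leaf stage, 2–3 weeks after sowing. After ~3 weeks, damage scored visually vs untreated controls (100% = plants dead, 0% = like controls).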

[13] = test system: ALOMY; assay: Herbicidal post-emergence action (Table B2); assay type: in vivo, Alopecurus myosuroides; settings: application rate 320 g/ha; rated visually after about 3 weeks
Procedure, shortened: as §2

[14] = test system: KCHSC; assay: Herbicidal post-emergence action (Table B4); assay type: in vivo, Kochia scoparia; settings: application rate 1280 g/ha; rated visually after about 3 weeks
Procedure, shortened: as §2

[15] = test system: LOLRI; assay: Herbicidal post-emergence action (Table B5); assay type: in vivo, Lolium rigidum; settings: application rate 1280 g/ha; rated visually after about 3 weeks
Procedure, shortened: as §2

[16] = test system: MATIN; assay: Herbicidal post-emergence action (Table B6); assay type: in vivo, Matricaria inodora; settings: application rate 320 g/ha; rated visually after about 3 weeks
Procedure, shortened: as §2

[17] = test system: POAAN; assay: Herbicidal post-emergence action (Table B7); assay type: in vivo, Poa annua; settings: application rate 320 g/ha
Procedure, shortened: as §2

[18] = test system: SETVI; assay: Herbicidal post-emergence action (Table B8); assay type: in vivo, Setaria viridis; settings: application rate 1280 g/ha
Procedure, shortened: as §2

[19] = test system: STEME; assay: Herbicidal post-emergence action (Table B9); assay type: in vivo, Stellaria media; settings: application rate 1280 g/ha
Procedure, shortened: as §2

[20] = test system: VERPE; assay: Herbicidal post-emergence action (Table B10); assay type: in vivo, Veronica persica; settings: application rate 320 g/ha
Procedure, shortened: as §2

[21] = test system: AMARE; assay: Herbicidal post-emergence action (Table B11); assay type: in vivo, Amaranthus retroflexus; settings: application rate 1280 g/ha
Procedure, shortened: as §2

[22] = test system: ALOMY; assay: Herbicidal pre-emergence action, section C (Table C2); assay type: in vivo, Alopecurus myosuroides; settings: application rate 320 g/ha; visual grading after ca. 3 weeks
[23] = test system: DIGSA; assay: Herbicidal pre-emergence action, section C (Table C5); assay type: in vivo, Digitaria sanguinalis; settings: application rate 80 g/ha; visual grading after ca. 3 weeks
[24] = test system: ECHCG; assay: Herbicidal pre-emergence action, section C (Table C6); assay type: in vivo, Echinochloa crus-galli; settings: application rate 80 g/ha; visual grading after ca. 3 weeks
[25] = test system: LOLRI; assay: Herbicidal pre-emergence action, section C (Table C7); assay type: in vivo, Lolium rigidum; settings: application rate 320 g/ha; visual grading after ca. 3 weeks
[26] = test system: MATIN; assay: Herbicidal pre-emergence action, section C (Table C8); assay type: in vivo, Matricaria inodora; settings: application rate 320 g/ha; visual grading after ca. 3 weeks
Source text: Seeds of mono- and dicotyledonous weed plants and crop plants were sown, in plastic or organic planting pots, in sandy loam and covered with soil. The compounds according to the invention, formulated in the form of wettable powders (WP) or as emulsifiable concentrates (EC), were applied to the surface of the covering soil as aqueous suspension or emulsion, with the addition of 0.5% of an additive, at an application rate of 600 1 of water/ha (converted). Following treatment, the pots were placed in a greenhouse and kept under optimum growth conditions for the test plants.

[27] = test system: SETVI; assay: Herbicidal pre-emergence action, section C (Table C10); assay type: in vivo, Setaria viridis; settings: application rate 80 g/ha; visual grading after ca. 3 weeks
[28] = test system: VERPE; assay: Herbicidal pre-emergence action, section C (Table C11); assay type: in vivo, Veronica persica; settings: application rate 320 g/ha; visual grading after ca. 3 weeks
[29] = test system: VIOTR; assay: Herbicidal pre-emergence action, section C (Table C12); assay type: in vivo, Viola tricolor; settings: application rate 320 g/ha; visual grading after ca. 3 weeks
[30] = test system: ALOMY; assay: Herbicidal post-emergence action, section E (Table E2); assay type: in vivo, Alopecurus myosuroides; settings: application rate 320 g/ha; assessed visually after ca. 3 weeks
Source text: (§3) 2 to 3 weeks after sowing, the test plants were sprayed in the single-leaf stage.

[31] = test system: ECHCG; assay: Herbicidal post-emergence action, section E (Table E5); assay type: in vivo, Echinochloa crus-galli; settings: application rate 320 g/ha; assessed visually after ca. 3 weeks
Source text: as §3

[32] = test system: LOLRI; assay: Herbicidal post-emergence action, section E (Table E6); assay type: in vivo, Lolium rigidum; settings: application rate 320 g/ha; assessed visually after ca. 3 weeks
Source text: as §3

[33] = test system: SETVI; assay: Herbicidal post-emergence action, section E (Table E8); assay type: in vivo, Setaria viridis; settings: application rate 320 g/ha; assessed visually after ca. 3 weeks
Source text: as §3

[34] = test system: VERPE; assay: Herbicidal post-emergence action, section E (Table E9); assay type: in vivo, Veronica persica; settings: application rate 320 g/ha; assessed visually after ca. 3 weeks
Source text: as §3

[35] = test system: ZEAMX; assay: Post-emergence effects on crop plants (Table F1); assay type: in vivo, Zea mays; settings: application rate 320 g/ha, crop plant ZEAMX
Source text: as §3

[36] = test system: TRZAS; assay: Post-emergence effects on crop plants (Table F2); assay type: in vivo, Triticum aestivum; settings: application rate 80 g/ha, crop plant TRZAS
Source text: as §3

[37] = test system: ORYZA; assay: Post-emergence effects on crop plants (Table F3); assay type: in vivo, Oryza sativa; settings: application rate 80 g/ha, crop plant ORYZA
Source text: as §3

[38] = test system: BRSNW; assay: Post-emergence effects on crop plants (Table F5); assay type: in vivo, Brassica napus; settings: application rate 320 g/ha, crop plant BRSNW
Source text: as §3

Which results are given for `O=C1N(Cc2cccc(F)c2F)CCCC12CCCN(Cc1c(F)cccc1F)C2=O` (racemic) [I-008, 8-[(2,3-difluorophenyl)methyl]-2-[(2,6-difluorophenyl)methyl]-2,8-diazaspiro[5.5]undecane-1,7-dione]?
pre-emergence activity against ABUTH [1]: 90%; pre-emergence activity against ECHCG [2]: 100%; pest or weed control at 320 g/ha [3]: 100%; pre-emergence activity against MATIN [4]: 100%; pre-emergence activity against SETVI [5]: 100%; pre-emergence activity against STEME [6]: 90%; pest or weed control at 320 g/ha [7]: 100%; pre-emergence activity against ALOMY [8]: 90%; pre-emergence activity against KCHSC [9]: 90%; pre-emergence activity against VERPE [10]: 90%; pre-emergence activity against DIGSA [11]: 100%; post-emergence activity against ABUTH [12]: 90%; post-emergence activity against ALOMY [13]: 90%; post-emergence activity against KCHSC [14]: 90%; post-emergence activity against LOLRI [15]: 100%; post-emergence activity against MATIN [16]: 90%; post-emergence activity against POAAN [17]: 90%; post-emergence activity against SETVI [18]: 90%; post-emergence activity against STEME [19]: 90%; post-emergence activity against VERPE [20]: 90%; post-emergence activity against AMARE [21]: 90%; pre-emergence activity against ALOMY [22]: 90%; pre-emergence activity against DIGSA [23]: 100%; pre-emergence activity against ECHCG [24]: 100%; pre-emergence activity against LOLRI [25]: 90%; pre-emergence activity against MATIN [26]: 80%; pre-emergence activity against SETVI [27]: 100%; pre-emergence activity against VERPE [28]: 80%; pre-emergence activity against VIOTR [29]: 80%; post-emergence activity against ALOMY [30]: 90%; post-emergence activity against ECHCG [31]: 90%; post-emergence activity against LOLRI [32]: 90%; post-emergence activity against SETVI [33]: 90%; post-emergence activity against VERPE [34]: 80%; post-emergence activity against ZEAMX [35]: 0%; post-emergence activity against TRZAS [36]: 0%; post-emergence activity against ORYZA [37]: 0%; post-emergence activity against BRSNW [38]: 0%
